Test results reported in patent publication EP0012543A1, “Compositions containing 1,3-dioxolanes as emollients” (IMPERIAL CHEMICAL INDUSTRIES PLC, priority 1978, dated 1980).

Test system: skin
Test: Evaluation of emollients: test lotion rated by a panel
Assay type: in vivo, persons
Experimental: The following basic composition is prepared:
The emollient to be tested is stirred with the other ingredients of the oil phase while heating to 70°C. Meanwhile, ingredients of the water phase are stirred and heated to 72°C. The water phase is then added gradually to the stirred oil phase, and the total mixture is stirred while it cools to room temperature. The emulsion (lotion or cream) is allowed to age for 48 hours at room temperature before evaluation.
For evaluation the subject applies a small amount of the lotion to the inner arm, rubs it into the skin and rates five characteristics: ease of application, moistness, smoothness, greasiness and tackiness. Numerical values are given as follows: poor = 0, average or "not sure" = 1, and good = 2. This is done by an experienced panel of 10 persons and ratings for each emollient are the mean for the 10 subjects. With this system, the highest possible rating is 10; the average emollient has a rating of 5; and the worst score is zero. Most of the emollients of the present invention have ratings well above 5.
Specific examples of acetals of fatty aldehydes are listed following under the name of the polyol. The aldehyde in each case was the mixed C13 and C15 aldehyde used in Example 1.

[1] = 0-10 scale, five characteristics (ease of application, moistness, smoothness, greasiness, tackiness) each rated 0-2, mean of 10 subjects, 7.0 parts emollient in lotion aged 48 hours, rubbed into inner arm

Row | Structure (SMILES) | Emollient Rating [1] | Emollient Rating (in vivo)
1 | CC(O)CO (centres unmarked) [1,2-Propylene glycol] | 8.1 | 
2 | OCC(O)CO [Glycerol] | 5.8 | 
3 | OCCCO [1,3-Propanediol] | 6.3 | 
4 | OCCO [Ethylene glycol] |  | 8.6
5 | OCC(CO)(CO)CO [Pentaerythritol] | 6.3 | 
